Data from patent publication US10172843B2, “Piperidine derivatives” (Hoffmann-La Roche Inc., priority 2014, dated 2019).

Biological target: human Cat S (Homo sapiens (Human), UniProt P25774)
Test: Cathepsin enzyme inhibition assay (fluorogenic peptide substrate)
Assay type: biochemical
Settings: human Cat S, enzyme 1 nM, substrate Z-Val-Val-Arg-AMC, pH 6.5; read-out: CatS IC50
Procedure: Cathepsin Enzyme Inhibition Assay
Enzyme activity is measured by observing the increase in fluorescence intensity caused by cleavage of a peptide substrate containing a fluorophore whose emission is quenched in the intact peptide.
Assay buffer: 100 mM potassium phosphate pH 6.5, EDTA-Na 5 mM, Triton X-100 0.001%, DTT 5 mM.
Enzymes (all at 1 nM): human and mouse Cathepsin S, Cat K, Cat B, Cat L.
Substrate ([…], except for Cat K which uses Z-Leu-Arg-AMC (both from Bachem).
Excitation 360 nm, Emission 465 nm.
Enzyme is added to the substance dilutions in 96-well microtitre plates and the reaction is started with substrate. […] IC50 are calculated by standard methods.
Inhibition of human Cat S, mouse Cat S, human Cat K, mouse Cat K, human Cat B, mouse Cat B, human Cat L and mouse Cat L have been measured separately.

human Cat S, sequence (P25774 115-331): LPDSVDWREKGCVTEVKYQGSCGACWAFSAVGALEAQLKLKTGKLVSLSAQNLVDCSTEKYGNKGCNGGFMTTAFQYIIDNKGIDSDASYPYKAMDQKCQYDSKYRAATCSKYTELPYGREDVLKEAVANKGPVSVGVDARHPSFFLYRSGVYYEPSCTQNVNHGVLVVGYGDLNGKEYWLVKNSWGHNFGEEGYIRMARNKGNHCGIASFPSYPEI

IC50 [nM] | SMILES
190 | Cc1[nH]c(-c2ccc(C(F)(F)F)cc2)nc1CN1CCC(N2Cc3ccccc3NC2=O)CC1 [Example 28, 3-{1-[5-Methyl-2-(4-trifluoromethyl-phenyl)-1H-imidazol-4-ylmethyl]-piperidin-4-yl}-3,4-dihydro-1H-quinazolin-2-one]
84 | Cc1c(CN2CCC(N3Cc4ccccc4NC3=O)CC2)nc(-c2ccc(C(F)(F)F)cc2)n1C [Example 71, 3-{1-[1,5-Dimethyl-2-(4-trifluoromethyl-phenyl)-1H-imidazol-4-ylmethyl]-piperidin-4-yl}-3,4-dihydro-1H-quinazolin-2-one]
135 | COCCN1C(=O)N(C2CCN(Cc3nc(-c4ccc(C(F)(F)F)cc4)[nH]c3C)CC2)Cc2ccccc21 [Example 54, 1-(2-Methoxy-ethyl)-3-{1-[5-methyl-2-(4-trifluoromethyl-phenyl)-1H-imidazol-4-ylmethyl]-piperidin-4-yl}-3,4-dihydro-1H-quinazolin-2-one]
155 | Cc1[nH]c(-c2ccc(S(=O)(=O)C(F)(F)F)cc2)nc1CN1CCC(c2c[nH]c3ccncc23)CC1 [Example 77, 3-{1-[5-Methyl-2-(4-trifluoromethanesulfonyl-phenyl)-1H-imidazol-4-ylmethyl]-piperidin-4-yl}-1H-pyrrolo[3,2-c]pyridine]
1200 | Cc1[nH]c(-c2ccc(Cl)c(Cl)c2)nc1CN1CCC(c2c[nH]c3ncccc23)CC1 [Example 49, 3-{1-[2-(3,4-Dichloro-phenyl)-5-methyl-1H-imidazol-4-ylmethyl]-piperidin-4-yl}-1H-pyrrolo[2,3-b]pyridine]
1380 | Cc1nn(-c2ccc(C(F)(F)F)cc2)cc1CN1CCC(N2Cc3ccccc3NC2=O)CC1 [Example 52, 3-{1-[3-Methyl-1-(4-trifluoromethyl-phenyl)-1H-pyrazol-4-ylmethyl]-piperidin-4-yl}-3,4-dihydro-1H-quinazolin-2-one]
145 | Cc1[nH]c(-c2ccc(C(F)(F)F)c(F)c2)nc1CN1CCC(N2Cc3ccccc3NC2=O)CC1 [Example 47, 3-{1-[2-(3-Fluoro-4-trifluoromethyl-phenyl)-5-methyl-1H-imidazol-4-ylmethyl]-piperidin-4-yl}-3,4-dihydro-1H-quinazolin-2-one]
595 | Cc1[nH]c(-c2ccc(C(F)(F)F)cc2)nc1CN1CCC(c2noc3cc(F)ccc23)CC1 [Example 37, 6-Fluoro-3-{1-[5-methyl-2-(4-trifluoromethyl-phenyl)-1H-imidazol-4-ylmethyl]-piperidin-4-yl}-benzo[d]isoxazole]
225 | O=C1Nc2ccccc2CN1C1CCN(Cc2nc(-c3ccc(C(F)(F)F)cc3)[nH]c2Cc2ccccc2)CC1 [Example 56, 3-{1-[5-Benzyl-2-(4-trifluoromethyl-phenyl)-1H-imidazol-4-ylmethyl]-piperidin-4-yl}-3,4-dihydro-1H-quinazolin-2-one]
195 | O=C1Nc2ccc(Br)cc2CN1C1CCN(Cc2cnc(-c3ccc(C(F)(F)F)cc3)[nH]2)CC1 [Example 17, 6-Bromo-3-[1-[[2-[4-(trifluoromethyl)phenyl]-1H-imidazol-5-yl]methyl]-4-piperidyl]-1,4-dihydroquinazolin-2-one]
287 | Cc1[nH]c(-c2ccc(Cl)c(Cl)c2)nc1CN1CCC(N2Cc3ccccc3NC2=O)CC1 [Example 42, 3-{1-[2-(3,4-Dichloro-phenyl)-5-methyl-1H-imidazol-4-ylmethyl]-piperidin-4-yl}-3,4-dihydro-1H-quinazolin-2-one]
3280 | Cc1nc(-c2ccc(C(F)(F)F)cc2)[nH]c1CN1CCC(N2CCCCC2=O)CC1 [Example 8, 1-[1-[[4-Methyl-2-[4-(trifluoromethyl)phenyl]-1H-imidazol-5-yl]methyl]-4-piperidyl]piperidin-2-one]
285 | Cc1[nH]c(-c2ccc(C(F)(F)F)cc2Cl)nc1CN1CCC(N2Cc3ccccc3NC2=O)CC1 [Example 59, 3-{1-[2-(2-Chloro-4-trifluoromethyl-phenyl)-5-methyl-1H-imidazol-4-ylmethyl]-piperidin-4-yl}-3,4-dihydro-1H-quinazolin-2-one]
77 | Cc1[nH]c(-c2ccc(C(F)(F)F)c(Cl)c2)nc1CN1CCC(N2Cc3ccccc3NC2=O)CC1 [Example 40, 3-{1-[2-(3-Chloro-4-trifluoromethyl-phenyl)-5-methyl-1H-imidazol-4-ylmethyl]-piperidin-4-yl}-3,4-dihydro-1H-quinazolin-2-one]
605 | Cc1[nH]c(-c2ccc(Cl)c(F)c2)nc1CN1CCC(N2Cc3ccccc3NC2=O)CC1 [Example 50, 3-{1-[2-(4-Chloro-3-fluoro-phenyl)-5-methyl-1H-imidazol-4-ylmethyl]-piperidin-4-yl}-3,4-dihydro-1H-quinazolin-2-one]
995 | Cc1[nH]c(-c2ccc(Cl)cc2Cl)nc1CN1CCC(N2Cc3ccccc3NC2=O)CC1 [Example 57, 3-{1-[2-(2,4-Dichloro-phenyl)-5-methyl-1H-imidazol-4-ylmethyl]-piperidin-4-yl}-3,4-dihydro-1H-quinazolin-2-one]

SMILES | IC50 [nM]
Cc1[nH]c(-c2ccc(C(F)(F)F)cc2)nc1CN1CCC(c2c[nH]c3ccccc23)CC1 [Example 36, 3-{1-[5-Methyl-2-(4-trifluoromethyl-phenyl)-1H-imidazol-4-ylmethyl]-piperidin-4-yl}-1H-indole] | 770
Cc1[nH]c(-c2ccc(C(F)(F)F)cc2)nc1CN1CCC(n2c(=O)n(CCS(C)(=O)=O)c3cc(Cl)ccc32)CC1 [Example 35, 5-Chloro-3-(2-methanesulfonyl-ethyl)-1-{1-[5-methyl-2-(4-trifluoromethyl-phenyl)-1H-imidazol-4-ylmethyl]-piperidin-4-yl}-1,3-dihydro-benzoimidazol-2-one] | 257
Cc1[nH]c(-c2ccc(C(F)(F)F)cc2Cl)nc1CN1CCC(n2c(=O)n(C)c3ccccc32)CC1 [Example 60, 1-{1-[2-(2-Chloro-4-trifluoromethyl-phenyl)-5-methyl-1H-imidazol-4-ylmethyl]-piperidin-4-yl}-3-methyl-1,3-dihydro-benzoimidazol-2-one] | 915
Cc1c(CN2CCC(n3c(=O)n(C)c4ccccc43)CC2)nc(-c2ccc(C(F)(F)F)cc2)n1C [Example 70, 1-{1-[1,5-Dimethyl-2-(4-trifluoromethyl-phenyl)-1H-imidazol-4-ylmethyl]-piperidin-4-yl}-3-methyl-1,3-dihydro-benzoimidazol-2-one] | 245
COCCn1c(=O)n(C2CCN(Cc3nc(-c4ccc(C(F)(F)F)cc4)[nH]c3C)CC2)c2ccc(Cl)cc21 [Example 27, 5-Chloro-3-(2-methoxy-ethyl)-1-{1-[5-methyl-2-(4-trifluoromethyl-phenyl)-1H-imidazol-4-ylmethyl]-piperidin-4-yl}-1,3-dihydro-benzoimidazol-2-one] | 220
Cc1[nH]c(-c2ccc(C(F)(F)F)cc2)nc1CN1CCC(n2c(=O)n(CC(N)=O)c3cc(Cl)ccc32)CC1 [Example 31, 2-(6-Chloro-3-{1-[5-methyl-2-(4-trifluoromethyl-phenyl)-1H-imidazol-4-ylmethyl]-piperidin-4-yl}-2-oxo-2,3-dihydro-benzoimidazol-1-yl)-acetamide] | 310
